Reference: article PMC6265301, “Engineering Saccharomyces cerevisiae for co-utilization of D-galacturonic acid and D-glucose from citrus peel waste” (Nature Communications, 2018)

What was measured:
[1] = target: T1, uronate dehydrogenase (UDH) (Pseudomonas syringae group genomosp. 3, UniProt Q888H1); experiment: conversion to meso-galactaric acid by UDH-expressing yeast, HPLC; type: cell-based; details: orange peel hydrolysate, GatA co-expressed
T1 construct: genomically integrated, expressed in S. cerevisiae with GatA
T1 sequence (Q888H1 1-275): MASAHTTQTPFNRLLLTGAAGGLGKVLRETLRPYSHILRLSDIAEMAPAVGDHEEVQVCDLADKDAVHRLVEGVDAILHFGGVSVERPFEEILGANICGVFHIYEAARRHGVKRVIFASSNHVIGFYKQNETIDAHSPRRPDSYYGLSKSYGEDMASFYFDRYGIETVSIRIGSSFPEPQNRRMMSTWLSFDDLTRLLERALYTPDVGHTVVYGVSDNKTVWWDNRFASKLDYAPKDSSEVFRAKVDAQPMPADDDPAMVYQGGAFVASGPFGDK

[2] = target: T2, GAR1 (Trichoderma reesei, UniProt Q3ZFI7); experiment: reductase activity in yeast lysate; type: biochemical
T2 construct: codon-optimized, expressed in S. cerevisiae BY4741, lysate
T2 sequence (Q3ZFI7 1-309): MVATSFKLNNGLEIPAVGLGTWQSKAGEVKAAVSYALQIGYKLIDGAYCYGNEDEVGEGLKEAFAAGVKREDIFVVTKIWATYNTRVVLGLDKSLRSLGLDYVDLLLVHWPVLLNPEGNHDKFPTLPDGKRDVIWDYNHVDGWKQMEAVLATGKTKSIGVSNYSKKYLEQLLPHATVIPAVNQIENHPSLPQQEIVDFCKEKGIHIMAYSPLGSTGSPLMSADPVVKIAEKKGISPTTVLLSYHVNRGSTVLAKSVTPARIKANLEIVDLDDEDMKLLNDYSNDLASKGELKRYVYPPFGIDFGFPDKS

[3] = target: T3, GAAA (Aspergillus niger, UniProt A8DRH9); experiment: reductase activity in yeast lysate; type: biochemical
T3 construct: codon-optimized, expressed in S. cerevisiae BY4741, lysate
T3 sequence (A8DRH9 1-412): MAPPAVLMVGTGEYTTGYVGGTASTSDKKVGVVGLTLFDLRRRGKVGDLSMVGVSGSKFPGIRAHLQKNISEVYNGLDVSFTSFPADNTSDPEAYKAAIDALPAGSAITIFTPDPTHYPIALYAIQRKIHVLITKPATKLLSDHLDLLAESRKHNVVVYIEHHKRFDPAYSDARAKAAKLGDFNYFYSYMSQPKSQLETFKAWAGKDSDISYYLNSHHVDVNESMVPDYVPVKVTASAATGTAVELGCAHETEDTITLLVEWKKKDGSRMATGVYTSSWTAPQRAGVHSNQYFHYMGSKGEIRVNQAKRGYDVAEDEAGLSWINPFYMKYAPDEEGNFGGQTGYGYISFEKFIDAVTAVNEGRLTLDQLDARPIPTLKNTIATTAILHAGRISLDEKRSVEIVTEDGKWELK

[4] = target: T4, GAAC (Aspergillus niger, UniProt A8DRH7); experiment: aldolase activity in yeast lysate; type: biochemical
T4 construct: codon-optimized, expressed in S. cerevisiae BY4741, lysate
T4 sequence (A8DRH7 1-335): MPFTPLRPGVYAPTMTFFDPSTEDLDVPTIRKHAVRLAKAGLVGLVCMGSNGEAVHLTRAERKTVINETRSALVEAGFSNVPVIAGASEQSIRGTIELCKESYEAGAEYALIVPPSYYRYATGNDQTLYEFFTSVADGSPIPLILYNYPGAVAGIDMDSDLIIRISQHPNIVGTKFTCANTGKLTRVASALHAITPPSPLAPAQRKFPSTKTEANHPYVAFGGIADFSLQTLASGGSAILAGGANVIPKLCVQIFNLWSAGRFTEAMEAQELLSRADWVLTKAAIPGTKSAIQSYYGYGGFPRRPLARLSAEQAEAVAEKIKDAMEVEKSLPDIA

Row | Compound | conversion to meso-galactaric acid by UDH-expressing yeast, HPLC [1] | reductase activity in yeast lysate [2] | reductase activity in yeast lysate [3] | aldolase activity in yeast lysate [4]
1 | O=C(O)[C@H]1OC(O)[C@H](O)[C@@H](O)[C@H]1O (stereo partly drawn) [D-galUA] | conversion of D-galUA to meso-galactaric acid was observed in the UDH and GatA co-expression strain | D-galacturonate reductase from Trichoderma reesei (GAR1) | lower specific activities measured for GAAA compared to GAR1 in cell lysate | 
2 | O=C(O)C(=O)C[C@H](O)[C@@H](O)CO [2-keto-3-deoxy-L-galactonate] |  |  |  | 2-keto-3-deoxy-L-galactonate aldolase from Aspergillus niger (GAAC)
